Source: PMC5874716, “Antimicrobial Peptides for Topical Treatment of Osteomyelitis and Implant-Related Infections: Study in the Spongy Bone” (Pharmaceuticals, 2018)
Non-standard residues stand in square brackets, D forms with d. Residues, ends and D or L forms follow the SMILES beside them. No end group written: not given here.

Columns and labels:
Micrococcus luteus = assay: Drop diffusion test; assay type: cell-based; details: RP-HPLC peak of bone marrow extract containing the three defensins; not shown
Text: In several cases when an all-D isomeric peptide alone, or in combination with its parent L-isomer in a 1:4 ratio in the blend with the carrier were applied to the infected hole, we observed a zero microbial count. We suppose that the contribution of D-isomeric peptides (II, VII, X, XII) to bacterial eradication was due to their resistance to proteases either exerted by bacteria or originated from the cells of the bone tissue. In these cases, we detected intact all-D peptide in the extract of the fillings (recovered from the infected hole after completing the experiment) by Reversed-Phase (RP)-HPLC analysis (not shown). On the other hand, the RP-HPLC analyses of the extracts of the fillings containing solely L-peptides indicated partial to complete digestion of peptides by proteases. Nevertheless, we assume that in all cases presented in Table 3 and Figure 2, it was the fast killing effect of AMPs on bacteria that played a conclusive role in eradicating the infection in the bone samples. When carrying out the experiments, we had to take into account that the bacterial load in an infected hole also could be reduced by components of the bone marrow immune system, including blood cells such as neutrophils. […] In one of the RP-HPLC peaks, we detected by mass spectrometry the presence of three human α-defensins HNP1, HNP2, and HNP3 [32] […]

C. glabrata DSY565 = assay: Biofilm formation on bone cement (Palacos r) model implants in infected femur head; design: species or system Candida glabrata; details: microbes infiltrated from a hole between implants; 2 days; single experiment
Text: (§1) The poly(methyl methacrylate)-based bone cement with or without AMPs was implanted either inside infected holes or inside non-infected holes. In the latter case, the microbes infiltrated towards the implant from a hole made between them at roughly equal distance from each (Figure 3). This would simulate the authentic situation in which the pathogens can infect an orthopaedic implant by spreading through the bloodstream or contiguously from areas of infection. We evaluated the experiments on the basis of the amounts of microbes released from the biofilms supposedly formed on the surfaces of the implants that were removed from the infected bone samples.
(§2) The bone samples with bored holes inside were prepared and handled as above. The bone cement (Palacos®r, Hereaus Medical GmbH, Wehrheim, Germany) with AMP incorporated was prepared by swift and thorough mixing of the polymer powder component (poly-methylacrylate, methyl methacrylate, 125 mg) and AMP (10 mg) or antibiotic (10 mg) with the liquid monomer (methyl methacrylate, N,N-dimethyl-p-toluidine, hydroquinone and colorant E141, 70 μL). The resulting elastic paste was pressed using a 2 mL plastic syringe into two bored holes, where it polymerized and solidified. The paste without peptide for filling of the remaining two holes was prepared similarly by mixing the powder component (125 mg) and liquid component (68 μL). […]

[1] = test system: P. aeruginosa (5482) ATCC 27853; assay: microbe, parasite or virus in culture; assay type: cell-based; details: Bioscreen C; at least three times in duplicates
Procedure: (§3) Femur heads (ca. 70 pieces) taken from patients during hip replacement surgery were periodically purchased in the period between 2014–2017 as discarded from the bone tissue bank at University Hospital in Motol, Prague, Czech Republic. The reason for the replacements by artificial prosthesis was the worn out cartilage on the surface of their heads. Bone samples were stored at −80 °C under standard conditions of certified tissue banks. In the laboratory, they were kept at +5 °C overnight and then at room temperature for several hours before they could be used for the experiments. The experiments with this material were approved by the Ethics Committee for Multi-Centric Clinical Trials of the University Hospital Motol, Reference No: EK-655/15. Methicillin-resistant S. aureus (MRSA 6271) ATCC 43300 and P. aeruginosa (5482) ATCC 27853 were purchased from the Czech National Collection of Type Cultures, National Institute of Public Health, Prague, Czech Republic. Methicillin-resistant S. aureus (MRSA (L)) and P. aeruginosa (L) were obtained as multi-resistant clinical isolates from Liberec Regional Hospital, Liberec, Czech Republic. Methicillin-resistant S. aureus (MRSA (M)), E. faecalis and S. epidermidis were obtained as clinical isolates from University Hospital in Motol, Prague. Candida albicans (F7-39/IDE99) came from the mycological collection of the Faculty of Medicine, Palacky University, Olomouc, Czech Republic. C. albicans ATCC MYA-2876, C. tropicalis ATCC 750 and C. glabrata DSY565 were kindly provided by Dr. Hana Sychrová from the Institute of Physiology, Academy of Sciences of the Czech Republic, Prague. Vancomycin hydrochloride, gentamicin sulfate, ceftriaxone disodium salt, amphotericin B, fluconazole, and clotrimazole were obtained from Sigma-Aldrich, Prague, Czech Republic.
(§4) MIC values for peptides were established by observing growth of treated bacteria in HONEYCOMB 100-well microtiter plates (Helsinki, Finland) using a Bioscreen C instrument (Oy Growth Curves, Helsinki, Finland) as previously described. Haemolytic activity of peptides expressed as the concentration of a peptide required for lysis of 50% of human erythrocytes in the assay (LC50) was measured using a Tecan infinite M200 PRO reader (Tecan Austria GmbH, Grödig, Austria). Blood samples for determining haemolytic activity were obtained from healthy volunteers.

[2] = test system: MRSA clinical isolate from University Hospital in Motol (MRSA (M)); assay: microbe, parasite or virus in culture; assay type: cell-based; details: clinical isolate Motol; Bioscreen C; at least three times in duplicates
Procedure: as §3, §4

[3] = test system: P. aeruginosa clinical isolate from Liberec Regional Hospital; assay: microbe, parasite or virus in culture; assay type: cell-based; details: clinical isolate Liberec; Bioscreen C; at least three times in duplicates
Procedure: as §3, §4

[4] = test system: MRSA clinical isolate from Liberec Regional Hospital (MRSA (L)); assay: microbe, parasite or virus in culture; assay type: cell-based; details: clinical isolate Liberec; Bioscreen C; at least three times in duplicates
Procedure: as §3, §4

[5] = test system: S. epidermidis clinical isolate (Motol); assay: microbe, parasite or virus in culture; assay type: cell-based; details: clinical isolate Motol; Bioscreen C; at least three times in duplicates
Procedure: as §3, §4

MRSA 6271 (ATCC 43300) = assay: microbe, parasite or virus in culture; assay type: cell-based; details: growth in 100-well microtiter plates, Bioscreen C; tested at least three times in duplicates
Procedure: as §3, §4

[6] = test system: E. faecalis clinical isolate (Motol); assay: microbe, parasite or virus in culture; assay type: cell-based; details: clinical isolate Motol; Bioscreen C; at least three times in duplicates
Procedure: as §3, §4

Candida albicans = assay type: cell-based; details: Bioscreen C; at least three times in duplicates
Procedure: as §3, §4

[7] = test system: C. albicans ATCC MYA-2876; assay: Biofilm formation on bone cement (Palacos r) model implants in infected femur head; design: species or system Candida albicans; details: microbes infiltrated from a hole between implants, 2 days, single experiment
Text: as §1, §2

human erythrocytes = assay: Haemolysis assay; assay type: cell-based; details: concentration causing lysis of 50% of human red blood cells; at least three times in duplicates
Procedure: as §4

laboratory rats = details: infected femurs of laboratory rats treated locally; cited from earlier work
Text: Another issue might be the toxicity of these peptides when applied locally to the bone tissue of laboratory animals or humans. […] None of these animals died.

Row | Compound | antimicrobial activity in drop diffusion tests (Micrococcus luteus) | CFU/Implant, C. glabrata (C. glabrata DSY565) | Antimicrobial Activity MIC, P. a. 5482 [1] [µM] | Antimicrobial Activity MIC, MRSA b [2] [µM] | Antimicrobial Activity MIC, P. a. a [3] [µM] | Antimicrobial Activity MIC, MRSA a [4] [µM] | Antimicrobial Activity MIC, S. e. b [5] [µM] | Antimicrobial Activity MIC, MRSA 6271 (MRSA 6271 (ATCC 43300)) [µM] | Antimicrobial Activity MIC, E. f. b [6] [µM] | Antimicrobial Activity MIC, C. a. (Candida albicans) [µM] | CFU/Implant, C. albicans c [7] | Haemolytic Activity LC50 (human erythrocytes) [µM] | animals died (laboratory rats) | signs of local or systemic toxicity (laboratory rats)
1 | CYCRIPACIAGERRYGTCIYQGRLWAFCC [HNP2, human α-defensin detected in bone marrow extract of the femur head] | exhibited antimicrobial activity |  |  |  |  |  |  |  |  |  |  |  |  | 
2 | Clc1ccccc1C(c1ccccc1)(c1ccccc1)n1ccnc1 [Clotrimazole, clotrimazole, reference compound] |  | 1.2 × 10^6 CFU/implant |  |  |  |  |  |  |  |  |  |  |  | 
3 | CC[C@H](C)[C@H](NC(=O)[C@H](CCCCN)NC(=O)[C@H](CCCCN)NC(=O)[C@@H](CC(C)C)NC(=O)[C@H](CC(C)C)NC(=O)[C@H](CCCCN)NC(=O)[C@H](CCSC)NC(=O)[C@H](Cc1c[nH]c2ccccc12)NC(=O)[C@H](CCCCN)NC(=O)CN)C(=O)N[C@@H](CC(C)C)C(=O)N[C@@H](CCCCN)C(N)=O [VIII] (H-GKWMKL[dL]KKILK-NH2; N-terminus assumed) |  | 2.4 × 10^3 CFU/implant | 5.0 | 32.0 | 32.0 | 13.3 | 4.0 | 18.7 | >100 | 8.0 | 6.0 × 10^3 CFU/implant | >400 |  | 
4 | GKWMKLLKKILK-NH2 [I] |  |  | 2.8 | 5.7 | 10.0 | 3.6 | 2.3 | 6.3 | 13.3 | 5.7 |  | 339 | None | did not notice any signs of local or systemic toxicity
5 | OC(Cn1cncn1)(Cn1cncn1)c1ccc(F)cc1F [Fluconazole, fluconazole, reference compound] |  |  |  |  |  |  |  |  |  |  | 3.6 × 10^4 CFU/implant |  |  | 
